IC50 data for four compounds are collected here from patent publication US20250101052A1, “COMPOUND FOR EGFR KINASE INHIBITOR, COMPOSITION, AND USE THEREOF” (INNOVATION INSTITUTE FOR ARTIFICIAL INTELLIGENCE IN …, priority 2021, published 2025).

For test [1], the target named is EGFR^L858R/T790M/C797S kinase (Homo sapiens (Human), UniProt P00533, C797S/L858R/T790M). As to the kind of experiment: EGFR^L858R/T790M/C797S kinase inhibitory activity experiment. The settings on record: in vitro. In kind it is biochemical. The procedure, abridged: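 Human EGFR L858R/T790M/C797S mutant preincubated 10 min with compound (10-point dilution from 1 μM), then reacted 60 min at room temperature with ATP and kinase substrate 22. Substrate conversion read by Caliper mobility shift. % inhibition normalized to no-enzyme and no-compound wells, with IC50 from variable-slope log(inhibitor) fit.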

The test system of another test is A431 cells. As to the kind of experiment: A431 cell proliferation inhibition (SRB). In kind it is cell-based. The conditions noted are these: Homo sapiens, A-431, wild-type EGFR, 72 hours.
Test [2] deals with BaF3-EGFR^L858R/T790M/C797S cells. As to the kind of experiment: BaF3 cell proliferation inhibition experiment (CCK-8). In kind it is cell-based. The settings on record: Ba/F3 EGFR-L858R, 72 hours.

Sequence of EGFR^L858R/T790M/C797S kinase (P00533 25-1210 T790M/C797S/L858R): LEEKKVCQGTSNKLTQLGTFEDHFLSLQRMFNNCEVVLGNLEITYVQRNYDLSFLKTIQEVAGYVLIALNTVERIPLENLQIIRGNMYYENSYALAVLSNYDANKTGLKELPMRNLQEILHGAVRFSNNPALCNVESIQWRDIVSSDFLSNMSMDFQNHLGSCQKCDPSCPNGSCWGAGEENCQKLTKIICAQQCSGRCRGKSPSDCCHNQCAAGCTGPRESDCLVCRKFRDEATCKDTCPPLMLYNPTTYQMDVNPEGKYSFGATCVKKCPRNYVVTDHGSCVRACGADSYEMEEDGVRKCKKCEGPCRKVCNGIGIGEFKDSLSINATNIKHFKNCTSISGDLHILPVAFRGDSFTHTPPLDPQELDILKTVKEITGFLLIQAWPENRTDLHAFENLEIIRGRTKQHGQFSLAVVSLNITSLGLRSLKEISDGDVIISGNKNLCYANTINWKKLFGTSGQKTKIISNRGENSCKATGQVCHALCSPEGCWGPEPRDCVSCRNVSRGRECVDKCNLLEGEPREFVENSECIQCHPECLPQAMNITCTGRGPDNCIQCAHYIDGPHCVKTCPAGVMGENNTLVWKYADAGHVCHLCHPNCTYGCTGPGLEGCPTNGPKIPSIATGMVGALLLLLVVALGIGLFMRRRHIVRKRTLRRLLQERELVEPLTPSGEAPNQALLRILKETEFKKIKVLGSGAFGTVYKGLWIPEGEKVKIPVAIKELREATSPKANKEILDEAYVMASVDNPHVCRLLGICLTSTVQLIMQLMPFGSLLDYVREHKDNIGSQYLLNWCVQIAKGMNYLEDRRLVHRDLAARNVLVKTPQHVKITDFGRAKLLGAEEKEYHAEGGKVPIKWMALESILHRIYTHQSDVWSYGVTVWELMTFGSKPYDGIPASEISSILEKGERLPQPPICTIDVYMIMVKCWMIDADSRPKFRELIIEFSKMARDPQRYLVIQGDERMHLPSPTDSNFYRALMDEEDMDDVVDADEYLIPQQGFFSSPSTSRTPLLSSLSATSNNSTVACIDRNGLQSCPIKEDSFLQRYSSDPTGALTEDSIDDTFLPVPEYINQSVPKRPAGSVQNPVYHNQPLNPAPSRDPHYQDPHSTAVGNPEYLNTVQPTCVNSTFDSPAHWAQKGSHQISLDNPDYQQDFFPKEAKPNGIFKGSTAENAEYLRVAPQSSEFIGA

One may read the IC50 as the concentration at which inhibition is half-maximal. High values mean a need for much substance, low ones inhibition by little substance. Take `CCc1cc(Nc2ncc(Cl)c(Nc3ccc(C)c(C)c3P(C)(C)=O)n2)c(OC)cc1N1CCC(N2CCN(C)CC2)CC1` [Comparative Compound A, reference compound]: the IC50 in test [1] was 0.54 nM; in the test on A431 cells, 207 nM; in test [2] it was 47.3 nM.

As to `CCc1cc(Nc2ncc(Cl)c(Nc3ccc(C)c(C)c3P(C)(C)=O)n2)c(OC)cc1N1CC2(CCN(C)CC2)C1` [Compound 24, (6-((5-Chloro-2-((5-ethyl-2-methoxy-4-(7-methyl-2,7-diazaspiro[3.5]non-2-yl)phenyl)amino)pyrimidin-4-yl)amino)-2,3-dimethylphenyl)dimethylphosphine oxide], the values for the IC50 (in test [1]; in the test on A431 cells; in test [2]) were 0.55 nM, above 1000 nM and 43.3 nM, respectively.

Take `CCc1cc(Nc2ncc(Cl)c(Nc3ccc(C)c(C)c3P(C)(C)=O)n2)c(OC)cc1N1CCC(N2C[C@H]3CC[C@@H](C2)N3C)CC1` [Compound 51, (6-((5-chloro-2-((5-ethyl-2-methoxy-4-(4-((1R,5S)-8-methyl-3,8-diazabicyclo[3.2.1]octan-3-yl)piperidin-1-yl)phenyl)amino)pyrimidin-4-yl)amino)-2,3-dimethylphenyl)dimethylphosphine oxide]: the results for the IC50 (in test [1]; with A431 cells; in test [2]) were 0.0452 nM, 745 nM and 131 nM, respectively.

`CCc1cc(Nc2ncc(Cl)c(Nc3ccc(C)c(C)c3P(C)(C)=O)n2)c(OC)cc1N1CCC2(CC1)CC(N(C)C)C2` [Compound 6, (6-((5-chloro-2-((4-(2-(dimethylamino)-7-azaspiro[3.5]nonan-7-yl)-5-ethyl-2-methoxyphenyl)amino)pyrimidin-4-yl)amino)-2,3-dimethylphenyl)dimethylphosphine oxide]: the IC50 in test [1] is 0.88 nM; in the test with A431 cells, above 1000 nM; in test [2], 67.6 nM.
